From patent US8906909B2 (Curis, Inc., priority 2009, dated 2014)

Tests used:
[1] = test system: HDACs (HeLa cell nuclear extracts); assay: HDAC enzymatic activity, Biomol Color de Lys system; type: biochemical
Method in brief: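 HeLa nuclear extract as HDAC source with Color de Lys substrate in 50 mM Tris/Cl pH 8.0, 137 mM NaCl, 2.7 mM KCl, 1 mM MgCl2. Serially diluted compounds reacted 1 h at 25 °C, then developer added; fluorescence (Ex 350–380/Em 440–460) fitted sigmoidally for IC50.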

IC50 [1] [nM] | melting point [°C] | Structure (SMILES)
< 100 | 175 to 178 | COc1ccc(-c2nc(N3CCOCC3)c3sc(C(C)(C)N(C)c4ncc(C(=O)NO)cn4)cc3n2)cn1 [Compound 251, N-Hydroxy-2-((2-(2-(6-methoxypyridin-3-yl)-4-morpholinothieno[3,2-d]pyrimidin-6-yl)propan-2-yl)(methyl)amino)pyrimidine-5-carboxamide]
< 100 | 162 to 165 | CCOc1ccc(-c2nc(N3CCOCC3)c3sc(CN(C)c4ncc(C(=O)NO)cn4)cc3n2)cn1 [Compound 255, 2-(((2-(6-ethoxypyridin-3-yl)-4-morpholinothieno[3,2-d]pyrimidin-6-yl)methyl)(methyl)amino)-N-hydroxypyrimidine-5-carboxamide]
< 100 | 143 to 145 | CN(Cc1cc2nc(-c3ccc(OCCO)nc3)nc(N3CCOCC3)c2s1)c1ncc(C(=O)NO)cn1 [Compound 256, N-Hydroxy-2-(((2-(6-(2-hydroxyethoxy)pyridin-3-yl)-4-morpholinothieno[3,2-d]pyrimidin-6-yl)methyl)(methyl)amino)pyrimidine-5-carboxamide]
< 100 | 140 to 143 | CN(C)CCOc1ccc(-c2nc(N3CCOCC3)c3sc(CN(C)c4ncc(C(=O)NO)cn4)cc3n2)cn1 [Compound 257, 2-(((2-(6-(2-(Dimethylamino)ethoxy)pyridin-3-yl)-4-morpholinothieno[3,2-d]pyrimidin-6-yl)methyl)(methyl)amino)-N-hydroxypyrimidine-5-carboxamide]
< 100 | 170 to 175 | CNCCOc1ccc(-c2nc(N3CCOCC3)c3sc(CN(C)c4ncc(C(=O)NO)cn4)cc3n2)cn1 [Compound 258, N-Hydroxy-2-(methyl((2-(6-(2-(methylamino)ethoxy)pyridin-3-yl)-4-morpholinothieno[3,2-d]pyrimidin-6-yl)methyl)amino)pyrimidine-5-carboxamide]
< 100 | 110 to 115 | CN(Cc1cc2nc(-c3ccc(OCCN)nc3)nc(N3CCOCC3)c2s1)c1ncc(C(=O)NO)cn1 [Compound 259, 2-(((2-(6-(2-Aminoethoxy)pyridin-3-yl)-4-morpholinothieno[3,2-d]pyrimidin-6-yl)methyl)(methyl)amino)-N-hydroxypyrimidine-5-carboxamide]
< 100 | 241 to 246 | CN(Cc1cc2nc(-c3ccc(N)c(Cl)c3)nc(N3CCOCC3)c2s1)c1ncc(C(=O)NO)cn1 [Compound 275, 2-(((2-(4-Amino-3-chlorophenyl)-4-morpholinothieno[3,2-d]pyrimidin-6-yl)methyl)(methyl)amino)-N-hydroxypyrimidine-5-carboxamide]
< 100 | 203 to 206 | CN(Cc1cc2nc(-c3ccc(N)c(F)c3)nc(N3CCOCC3)c2s1)c1ncc(C(=O)NO)cn1 [Compound 276, 2-(((2-(4-Amino-3-fluorophenyl)-4-morpholinothieno[3,2-d]pyrimidin-6-yl)methyl)(methyl)amino)-N-hydroxypyrimidine-5-carboxamide]
< 100 | 202 to 206 | CN(Cc1cc2nc(-c3ccc(N)c([N+](=O)[O-])c3)nc(N3CCOCC3)c2s1)c1ncc(C(=O)NO)cn1 [Compound 278, 2-(((2-(4-Amino-3-nitrophenyl)-4-morpholinothieno[3,2-d]pyrimidin-6-yl)methyl)(methyl)amino)-N-hydroxypyrimidine-5-carboxamide]
< 100 | 214 to 218 | CN(Cc1cc2nc(-c3ccc(N)c(O)c3)nc(N3CCOCC3)c2s1)c1ncc(C(=O)NO)cn1 [Compound 279, 2-(((2-(4-Amino-3-hydroxyphenyl)-4-morpholinothieno[3,2-d]pyrimidin-6-yl)methyl)(methyl)amino)-N-hydroxypyrimidine-5-carboxamide]
< 100 | 237 to 240 | CN(Cc1cc2nc(-c3ccc(N)c(C#N)c3)nc(N3CCOCC3)c2s1)c1ncc(C(=O)NO)cn1 [Compound 280, 2-(((2-(4-Amino-3-cyanophenyl)-4-morpholinothieno[3,2-d]pyrimidin-6-yl)methyl)(methyl)amino)-N-hydroxypyrimidine-5-carboxamide]
< 100 | 156 to 158 | CC(=O)c1cc(-c2nc(N3CCOCC3)c3sc(CN(C)c4ncc(C(=O)NO)cn4)cc3n2)ccc1N [Compound 281, 2-{[2-(3-Acetyl-4-amino-phenyl)-4-morpholin-4-yl-thieno[3,2-d]pyrimidin-6-ylmethyl]-methyl-amino}-pyrimidine-5-carboxylic acid hydroxyamide]

Continued, compound first:

Structure (SMILES) | IC50 [1] [nM] | melting point [°C]
COc1ccc(-c2nc(N3CCOCC3)c3sc(NS(=O)(=O)c4ccc(/C=C/C(=O)NO)cc4)cc3n2)cn1 [Compound 222, N-Hydroxy-3-{4-[2-(6-methoxy-pyridin-3-yl)-4-morpholin-4-yl-thieno[3,2-d]pyrimidin-6-ylsulfamoyl]-phenyl}-acrylamide] | < 100 | > 300
Nc1ncc(-c2nc(N3CCOCC3)c3sc(NCCCC(=O)NO)cc3n2)cn1 [Compound 225, 4-(2-(2-aminopyrimidin-5-yl)-4-morpholinothieno[3,2-d]pyrimidin-6-ylamino)-N-hydroxybutanamide] | 1000 to 10000 | 220 to 230
Nc1ncc(-c2nc(N3CCOCC3)c3sc(NCCCCC(=O)NO)cc3n2)cn1 [Compound 226] | < 100 | 175 to 180
CNc1ncc(-c2nc(N3CCOCC3)c3sc(NCCCCC(=O)NO)cc3n2)cn1 [Compound 227, N-Hydroxy-5-(2-(2-(methylamino)pyrimidin-5-yl)-4-morpholinothieno[3,2-d]pyrimidin-6-ylamino)pentanamide] | < 100 | 206 to 210
Cc1ncc(-c2nc(N3CCOCC3)c3sc(NCCCCC(=O)NO)cc3n2)cn1 [Compound 229, N-Hydroxy-5-(2-(2-methylpyrimidin-5-yl)-4-morpholinothieno[3,2-d]pyrimidin-6-ylamino)pentanamide] | < 100 | 248 to 252
Nc1ncc(-c2nc(N3CCOCC3)c3sc(NCCCCCC(=O)NO)cc3n2)cn1 [Compound 232, 6-[2-(2-Amino-pyrimidin-5-yl)-4-morpholin-4-yl-thieno[3,2-d]pyrimidin-6-ylamino]-hexanoic acid hydroxyamide] | < 100 | 220 to 225
COc1ccc(-c2nc(N3CCOCC3)c3sc(NCCCCCC(=O)NO)cc3n2)cn1 [Compound 233, 6-[2-(6-Methoxy-pyridin-3-yl)-4-morpholin-4-yl-thieno[3,2-d]pyrimidin-6-ylamino]-hexanoic acid hydroxyamide] | < 100 | 125 to 130
Nc1ncc(-c2nc(N3CCOCC3)c3sc(NCCCCCCC(=O)NO)cc3n2)cn1 [Compound 234, 7-[2-(2-Amino-pyrimidin-5-yl)-4-morpholin-4-yl-thieno[3,2-d]pyrimidin-6-ylamino]-heptanoic acid hydroxyamide] | < 100 | 235 to 240
CNc1ccc(-c2nc(N3CCOCC3)c3sc(C(C)N(C)c4ncc(C(=O)NO)cn4)cc3n2)cn1 (stereo not drawn) [Compound 237, N-Hydroxy-2-(methyl(1-(2-(6-(methylamino)pyridin-3-yl)-4-morpholinothieno[3,2-d]pyrimidin-6-yl)ethyl)amino)pyrimidine-5-carboxamide] | < 100 | 270 to 275
CNc1ccc(-c2nc(N3CCOCC3)c3sc(C(C)(C)Nc4ncc(C(=O)NO)cn4)cc3n2)cn1 [Compound 240, N-Hydroxy-2-(2-(2-(6-(methylamino)pyridin-3-yl)-4-morpholinothieno[3,2-d]pyrimidin-6-yl)propan-2-ylamino)pyrimidine-5-carboxamide] | < 100 | 200 to 205
CN(Cc1cc2nc(-c3cnn(C)c3)nc(N3CCOCC3)c2s1)c1ncc(C(=O)NO)cn1 [Compound 246, N-Hydroxy-2-(methyl((2-(1-methyl-1H-pyrazol-4-yl)-4-morpholinothieno[3,2-d]pyrimidin-6-yl)methyl)amino)pyrimidine-5-carboxamide] | < 100 | 164 to 169
COc1ccc(-c2nc(N3CCOCC3)c3sc(S(=O)(=O)Nc4ncc(C(=O)NO)cn4)cc3n2)cn1 [Compound 252, 2-[2-(6-Methoxy-pyridin-3-yl)-4-morpholin-4-yl-thieno[3,2-d]pyrimidine-6-sulfonylamino]-pyrimidine-5-carboxylic acid hydroxyamide] | < 100 | 259 to 265
COc1ncc(-c2nc(N3CCOCC3)c3sc(C(C)N(C)c4ncc(C(=O)NO)cn4)cc3n2)cn1 (stereo not drawn) [Compound 262, N-Hydroxy-2-((1-(2-(2-methoxypyrimidin-5-yl)-4-morpholinothieno[3,2-d]pyrimidin-6-yl)ethyl)(methyl)amino)pyrimidine-5-carboxamide] | < 100 | 210 to 215
COc1ncc(-c2nc(N3CCOCC3)c3sc(C(C)(C)Nc4ncc(C(=O)NO)cn4)cc3n2)cn1 [Compound 263, N-Hydroxy-2-(2-(2-(2-methoxypyrimidin-5-yl)-4-morpholinothieno[3,2-d]pyrimidin-6-yl)propan-2-ylamino)pyrimidine-5-carboxamide] | < 100 | 202 to 207
Nc1ccc(-c2nc(N3CCOCC3)c3sc(S(=O)(=O)Nc4ncc(C(=O)NO)cn4)cc3n2)cc1 [Compound 271, 2-[2-(4-Amino-phenyl)-4-morpholin-4-yl-thieno[3,2-d]pyrimidine-6-sulfonylamino]-pyrimidine-5-carboxylic acid hydroxyamide] | < 100 | 197 to 205
